According to patent US12138256B2, “Treatment of cardiopulmonary disorders” (Bayer Aktiengesellschaft, priority 2021, dated 2024):
“And” between values parts separate entries of the source, which are not always exact repeats. Equal entries are not always repeated.

Experiments:
[1] = system: anesthetized PAH minipigs; assay: PAH minipig model: intratracheal application of dry powder formulations and different hydrates (PennCentury insufflator); assay type: in vivo, Göttingen minipig; conditions: intratracheal lactose formulation; lower doses not applicable
Excerpt: After characterization of the effects of comparative example 11 after nebulization of compound solutions, in a further step the effects of crystalline forms of comparative example 11, e.g. sesquihydrate, e.g. example 6e on PAP and BP after inhaled application of different dry powder lactose formulations (table C2.1.8) were studied in anesthetized PAH minipigs.
As reference pure Lactose vehicle was applied in the beginning of each experiment.

[2] = Protein binding via Transil assay, plasma of all species investigated (C-5.2); assay type: in vitro ADME; conditions: Wistar (rat), Beagle (dog), plasma (Transil beads), read-out: free fractions
Excerpt: (§1) The distribution of a test substance between Transil® (phosphatidylcholine lipid bilayers immobilized on silica beads) and plasma is a characteristic feature of any pharmaceutical compound and is dependent on its extent of binding to plasma proteins. By comparing the distribution between Transil® and buffer with the distribution between Transil® and plasma of any species of interest, the unbound fraction in the plasma of the respective animal species can be calculated in vitro. The respective plasma and buffer concentrations were determined via a radioactivity analysis. A detailed description of the method and its validation was published by Schuhmacher et al. (2).

[3] = Protein binding via Transil assay, human plasma; assay type: in vitro ADME
Excerpt: as §1

[4] = system: hypoxia induced PAP increase in conscious dogs; assay: Haemodynamics in conscious hypoxia challenged dogs (C-2.2); assay type: in vivo, dog; set-up: PAP, absolute values for each animal: unit: mmHg; conditions: for mPAP decrease during Hypoxia, each animal / mPAP decrease during Hypoxia, mean +/− SEM: n = 3
Description: Experiments were carried out in anesthetized Göttingen minipigs, anesthetized rats and conscious, telemetrically instrumented dogs. Acute pulmonary hypertension was induced for example by infusion of a thromboxane A2 analogon, by acute hypoxia treatment or hypoxia treatment over a number of weeks and/or by administration of monocrotaline. Test substances were applied via nebulization using the Nebutec® or Aeroneb® Pro nebulizer system, and/or by means of powder and/or solution applicators for experimental intratracheal administration (Liquid MicroSprayer®, Dry Powder Insufflator™, MicroSprayer®, Penn-Century Inc., Wyndmoor, PA, USA) or after solid nebulization inserted into the inspiration arm of the ventilation. Compounds were employed as solids or solutions depending on the molecular structure and the technical possibility depending on the experiment. The haemodynamic signals were recorded and evaluated by means of pressure transducers/amplifiers (Combitransducer B. Braun, Melsungen, Germany or CardioMEMS Inc., Atlanta, GA, USA) and Ponemah® or CardioMems® as data aquisition software. After long-term experiments (for example monocrotaline rat), it is also possible to carry out a histological evaluation.
We evaluated the lung-selectivity and duration of effects of comparative example 11 under conscious conditions, in another species, and under a more physiological stimulus for PAP increase. Dogs were exposed to hypoxia for 30 minutes to induce a hypoxia-mediated PAP increase and comparative example 11 (100 μg/kg nominal dose) was applied by inhalation 1, 5, 12, 16 and 24 hours before hypoxia.
The hypoxic dog model was also used to compare different drug candidates wrt duration of action under conscious conditions.

[5] = Protein binding via Transil assay, dog plasma; assay type: in vitro ADME; conditions: Dog Beagle plasma, Transil assay
Excerpt: as §1

[6] = Protein binding via Transil assay, rat plasma; assay type: in vitro ADME; conditions: Rat Wistar plasma, Transil assay
Excerpt: as §1

[7] = 100 μg/kg nominal dose inhaled, 1-2 h post inhalation
[8] = 100 μg/kg nominal dose inhaled, 5-6 h post inhalation
[9] = 100 μg/kg nominal dose inhaled, 12-13 h post inhalation
[10] = 100 μg/kg nominal dose inhaled, 16-17 h post inhalation
[11] = 100 μg/kg nominal dose inhaled, 24-25 h post inhalation

O=C(O)c1ccc(CCN(CCc2ccccc2OCc2ccc(-c3ccc(C(F)(F)F)cc3)cc2Cl)[C@H]2CCCc3nc(C(=O)O)ccc32)cc1 [comparative example 11, (5S)-5-{[2-(4-carboxyphenyl)ethyl][2-(2-{[3-chloro-4′-(trifluoromethyl)[biphenyl]-4-yl]methoxy}phenyl)ethyl]amino}-5,6,7,8-tetrahydroquinoline-2-carboxylic acid]
MED (dry powder) [1]: < 7.5 µg/kg | fraction unbound [2]: < 0.01 | fraction unbound ([3]; Human (male) plasma, Transil assay, read-out: Fraction unbound): 0.000764 | fraction unbound ([3]; plasma (Transil beads), human plasma, read-out: plasma fu (fraction unbound)): 0.000764 | effects on HR ([4]; 100 μg/kg nominal dose inhaled): No effects on HR | PAP, absolute values for each animal ([4]; 100 μg/kg nominal dose inhaled 1 h before hypoxia, time 4 min): 10 and 13 and 8 | PAP, absolute values for each animal ([4]; 100 μg/kg nominal dose inhaled 1 h before hypoxia, time 6 min): 12 and 13 and 8 | PAP, absolute values for each animal ([4]; 100 μg/kg nominal dose inhaled 1 h before hypoxia, time 8 min): 10 and 12 and 9 | PAP, absolute values for each animal ([4]; 100 μg/kg nominal dose inhaled 16 h before hypoxia, time 22 min): 23 (2×) and 12 | PAP, absolute values for each animal ([4]; 100 μg/kg nominal dose inhaled 16 h before hypoxia, time 24 min): 21 and 27 and 14 | PAP, absolute values for each animal ([4]; 100 μg/kg nominal dose inhaled 16 h before hypoxia, time 26 min): 23 and 24 and 12 | PAP, absolute values for each animal ([4]; 100 μg/kg nominal dose inhaled 16 h before hypoxia, time 28 min): 21 and 25 and 15 | PAP, absolute values for each animal ([4]; 100 μg/kg nominal dose inhaled 16 h before hypoxia, time 30 min): 21 and 23 and 14 | PAP, absolute values for each animal ([4]; 100 μg/kg nominal dose inhaled 16 h before hypoxia, time 32 min): 18 and 26 and 16 | PAP, absolute values for each animal ([4]; 100 μg/kg nominal dose inhaled 16 h before hypoxia, time 34 min): 18 and 28 and 15 | PAP, absolute values for each animal ([4]; 100 μg/kg nominal dose inhaled 16 h before hypoxia, time 36 min): 17 and 25 and 18 | PAP, absolute values for each animal ([4]; 100 μg/kg nominal dose inhaled 16 h before hypoxia, time 38 min): 18 and 27 and 17 | PAP, absolute values for each animal ([4]; 100 μg/kg nominal dose inhaled 16 h before hypoxia, time 40 min): 17 (2×) and 28 | PAP, absolute values for each animal ([4]; 100 μg/kg nominal dose inhaled 16 h before hypoxia, time 42 min): 9 and 19 and 13 | PAP, absolute values for each animal ([4]; 100 μg/kg nominal dose inhaled 16 h before hypoxia, time 44 min): 7 and 18 and 9 | PAP, absolute values for each animal ([4]; 100 μg/kg nominal dose inhaled 16 h before hypoxia, time 46 min): 7 and 18 and 6 | PAP, absolute values for each animal ([4]; 100 μg/kg nominal dose inhaled 16 h before hypoxia, time 48 min): 6 and 16 and 9 | PAP, absolute values for each animal ([4]; 100 μg/kg nominal dose inhaled 16 h before hypoxia, time 50 min): 7 and 15 and 8 | PAP, absolute values for each animal ([4]; 100 μg/kg nominal dose inhaled 24 h before hypoxia, time 0 min): 10 and 15 (2×) | PAP, absolute values for each animal ([4]; 100 μg/kg nominal dose inhaled 24 h before hypoxia, time 2 min): 9 and 14 and 12 | PAP, absolute values for each animal ([4]; 100 μg/kg nominal dose inhaled 24 h before hypoxia, time 4 min): 8 and 14 and 10 | PAP, absolute values for each animal ([4]; 100 μg/kg nominal dose inhaled 24 h before hypoxia, time 6 min): 8 and 16 and 11 | PAP, absolute values for each animal ([4]; 100 μg/kg nominal dose inhaled 24 h before hypoxia, time 8 min): 8 and 14 and 9 | PAP, absolute values for each animal ([4]; 100 μg/kg nominal dose inhaled 24 h before hypoxia, time 10 min): 9 and 11 and 10 | PAP, absolute values for each animal ([4]; 100 μg/kg nominal dose inhaled 24 h before hypoxia, time 12 min): 20 (2×) and 15 | PAP, absolute values for each animal ([4]; 100 μg/kg nominal dose inhaled 24 h before hypoxia, time 14 min): 23 and 22 and 19 | PAP, absolute values for each animal ([4]; 100 μg/kg nominal dose inhaled 24 h before hypoxia, time 16 min): 27 and 24 and 22 | PAP, absolute values for each animal ([4]; 100 μg/kg nominal dose inhaled 24 h before hypoxia, time 18 min): 27 and 26 and 20 | PAP, absolute values for each animal ([4]; 100 μg/kg nominal dose inhaled 24 h before hypoxia, time 20 min): 29 (2×) and 23 | PAP, absolute values for each animal ([4]; 100 μg/kg nominal dose inhaled 24 h before hypoxia, time 22 min): 27 and 30 and 22 | PAP, absolute values for each animal ([4]; 100 μg/kg nominal dose inhaled 24 h before hypoxia, time 24 min): 26 and 28 and 22 | PAP, absolute values for each animal ([4]; 100 μg/kg nominal dose inhaled 24 h before hypoxia, time 26 min): 24 and 29 and 17 | PAP, absolute values for each animal ([4]; 100 μg/kg nominal dose inhaled 24 h before hypoxia, time 28 min): 26 and 29 and 20 | PAP, absolute values for each animal ([4]; 100 μg/kg nominal dose inhaled 24 h before hypoxia, time 30 min): 24 | efficacy (PAP decrease), head to head ([4]; 100 μg/kg nominal dose inhaled, up to 6 hrs after inhalation): comparable efficacy | mPAP decrease during Hypoxia, each animal [4, 7]: −12.44 mmHg and −11.44 mmHg and −10.13 mmHg | mPAP decrease during Hypoxia, mean +/− SEM [4, 7]: −11.33 ± 0.67 mmHg | mPAP decrease during Hypoxia, each animal [4, 8]: −16.13 mmHg and −5.44 mmHg and −8.75 mmHg | mPAP decrease during Hypoxia, mean +/− SEM [4, 8]: −10.10 ± 3.16 mmHg | mPAP decrease during Hypoxia, each animal [4, 9]: −3.44 mmHg and −4.81 mmHg and −1.69 mmHg | mPAP decrease during Hypoxia, mean +/− SEM [4, 9]: −3.31 ± 0.90 mmHg | mPAP decrease during Hypoxia, each animal [4, 10]: −2.25 mmHg and −4.25 mmHg and −3.00 mmHg | mPAP decrease during Hypoxia, mean +/− SEM [4, 10]: −3.17 ± 0.58 mmHg | mPAP decrease during Hypoxia, each animal [4, 11]: −0.13 mmHg and −1.94 mmHg and −0.50 mmHg | mPAP decrease during Hypoxia, mean +/− SEM [4, 11]: −0.85 ± 0.55 mmHg | PAP decrease, head to head ([4]; 100 μg/kg nominal dose, 12 and 16 hrs after inhalation): more effective PAP decrease for comparative example 11 compared to comparative example 4 | fraction unbound [5]: 0.00108 | fraction unbound [6]: 0.00224
